Earlier results in patent US6723530B1, “Polynucleotides encoding proexendin, and methods and uses thereof” (Amylin Pharmaceuticals, Inc., priority 1997, dated 2004).
No end group written: not given here.

Experiments:
[1] = test system: guinea pig acinar cell preparations
[2] = test system: cultured islet cell lines; settings: cultured islet cell lines in vitro

For exendin 4, the cAMP levels [1] is listed as “increased”, the “mode of action towards GLP-1 (agonist / antagonist)” value (GLP-1) is listed as “strong agonist” and the cAMP accumulation [2] is listed as “increase”. The glucose-dependent insulin secretion [2] was “stimulate” and the insulin gene expression [2] was “increase”.

For “exendin 4(9-39)NH3: truncated exendin 4, competitive antagonist of both exendin 4 and GLP-1”, the “mode of action towards GLP-1 (agonist / antagonist)” value (GLP-1) is listed as “competitive antagonist”.

In the case of “truncated GLP-1[7-36)-amide: truncated mammalian GLP-1 peptide amide (HAEGTFTSDVSSYLEGQAAKEFIAWLVKGR-NH2)”, the cAMP levels [1] is given as “increased”.
